Source: PMC8547495 (Journal of medicinal chemistry, 2021)
Entries after “also recorded” stand apart in the source; their conditions may differ.

Experiments:
SARS-CoV-2 = settings: at 33 μM, the maximum soluble dose; cited from earlier work
SARS-CoV-2 PLpro [1] = biological target: T1, SARS-CoV-2 PLpro (Severe acute respiratory syndrome coronavirus 2, UniProt P0DTD1); type: biochemical; settings: for PLpro inhibition potency in words: compared with GRL0617 / parent
SARS-CoV-2 PLpro [2] = biological target: T1, SARS-CoV-2 PLpro; test: biochemical; type: binding
A549 cells = settings: for cytotoxicity compared with 1: at 100 μM; for concentration below which cytotoxicity was not observed: under the antiviral assay conditions, A549-hACE2
in vivo = settings: male, C57BL/6, mouse, ip, 50 mg/kg
SARS-CoV-2 USA/WA1/2020 = type: cell-based; settings: 20 μM, remdesivir 10 μM / 20 μM
[3] = microsomes, 2 μM

Q: Which “antiviral activity compared to remdesivir” value (SARS-CoV-2) does the source give for `COc1cc(CNC(=O)C2CCN(C(C)c3cccc4ccccc34)CC2)ccn1` (racemic) [rac5c] here?
A: 60%

Q: Which “PLpro inhibition potency in words” value (SARS-CoV-2 PLpro [1]) does the source give for `Cc1ccc(N)cc1C(=O)N[C@H](CCO)c1cccc2ccccc12` [DY2-97] here?
A: almost completely inactive

Q: For `CNC(=O)C[C@@H](NC(=O)c1cc(N(C)C2CNC2)ccc1C)c1cccc2ccccc12` [DY2-116], which Kd (SARS-CoV-2 PLpro [2]) is on record?
A: > 1000 µM

Q: And the “PLpro inhibition potency in words” value (SARS-CoV-2 PLpro [1])?
A: almost completely inactive

Q: And the IC50 (SARS-CoV-2 PLpro [1]; read-out: Enzyme inhibition IC50, SARS-CoV-2 PLpro, Z-RLRGG-AMC substrate)?
A: > 100 µM

Q: Which results are given for `Cc1ccc(NC2CNC2)cc1C(=O)N[C@H](C)c1cccc(-c2ccc(CNC3CCCC3)s2)c1` [XR8-23]?
A: cytotoxicity compared with 1 (A549 cells): more cytotoxic than 1; concentration below which cytotoxicity was not observed (A549 cells): < 10 µM; Cmax (in vivo): 12 to 13 µM

Q: For `Cc1ccc(NC2CNC2)cc1C(=O)N[C@H](C)c1cccc(-c2ccc(CN3CCCC3)s2)c1` [XR8-24], which “effect of treatment on viral RNA versus remdesivir” value (SARS-CoV-2 USA/WA1/2020) is on record?
A: not significantly different from that of remdesivir; also recorded: not significantly different from the FDA-approved RdRp inhibitor remdesivir

Q: What about the “cytotoxicity compared with 1” value (A549 cells) of the same molecule?
A: more cytotoxic than 1

Q: And the “concentration below which cytotoxicity was not observed” value (A549 cells)?
A: < 50 µM

Q: And the Cmax (in vivo)?
A: 12 to 13 µM

Q: What does the source list for `Cc1ccc(NC2CNC2)cc1C(=O)N[C@H](C)c1cccc2ccccc12` [ZN-2-184]?
A: improvement in affinity relative to GRL0617 (SARS-CoV-2 PLpro [2]; SPR): two-fold improvement in affinity; gain in binding stabilization from SPR affinity (SARS-CoV-2 PLpro [2]; relative to GRL0617, engaging Site I or BL2 groove alone): 0.57 kcal/mol

Q: With `CC[C@@H](NC(=O)c1cc(N(C)C2CNC2)ccc1C)c1cccc2ccccc12` [ZN-3-61] as the molecule, how does the “PLpro inhibition potency in words” value (SARS-CoV-2 PLpro [1]) read?
A: significant decrease in potency

Q: With `Cc1ccc(NC2CNC2)cc1C(=O)N[C@H](C)c1cccc(-c2cccs2)c1` [ZN-3-80] as the molecule, how does the “human liver microsome stability in words” value [3] read?
A: more stable than GRL0617
